Our source for the EC50 values is patent US20160045505A1, “COMPOUNDS AND COMPOSITIONS FOR THE TREATMENT OF PARASITIC DISEASES” (NOVARTIS AG, priority 2013, published 2016).

In general, EC50 refers to the concentration at which the effect is half-maximal.

Read-outs that look alike come from different tables or passages of the source.

The subject of test [1] is Trypanosoma brucei Lister 427 strain, bloodstream form. Put plainly: Assay for proliferation of kinetoplastid parasite Trypanosoma brucei (Cell Titer Glo, 48 hours). Format: cell-based. The settings on record: Trypanosoma brucei, read-out: T. brucei EC50. An outline of the steps:
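Bloodstream-form T. brucei Lister 427 in HMI-9 medium was exposed to compound (DMSO vehicle) for 48 hours at 37° C, 5% CO2. Parasite growth was read as ATP by CellTiter-Glo luminescence, with EC50 calculated from percent inhibition.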
On the technique in general: Cellular ATP, detected with luciferase, serves as a proxy for viable cell number.

The test system of test [2] is Trypanosoma cruzi amastigotes (Tulahuen strain expressing Lac-Z) cultured in 3T3 fibroblast cells. Kind of test: microbe, parasite or virus in culture. It counts as cell-based. Conditions: Trypanosoma cruzi, TULAHUEN, Fibroblast, T. cruzi amastigotes in 3T3 fibroblast cells, read-out: T cruzi EC50.
The test system of test [3] is Leishmania donovani axenic amastigote parasites. Put plainly: Leishmania donovani axenic amastigote proliferation assay (Cell TiterGlo luminescence, 2 day incubation). Format: cell-based. Conditions: Leishmania donovani, read-out: L. donovani amastigotes EC50.
Test [4] deals with L. donovani HU3 strain in mouse peritoneal macrophages. Put plainly: Assay for proliferation of Leishmania parasites in infected mouse peritoneal macrophages (SybrGreen staining, high-content imaging, 5 days). Format: cell-based, Leishmania donovani. Conditions: Leishmania donovani, Peritoneal macrophage, L. donovani in mouse peritoneal macrophages, read-out: L. donovani Macrophage EC50.

Where [5] appears, read: T. brucei Lister 427 bloodstream form.
Where [6] appears, read: T. brucei Lister 427 bloodstream form, inhibition of proliferation.
The mark [7] stands for this setting: axenic amastigotes, inhibition of proliferation.

Consider `CNc1ccc(-c2cnc3nc(-c4cc(NC(=O)c5oc(C)nc5C)ccc4F)cn3c2)cc1` [Compound 392], for which the EC50 turned out to be 55 nM in test [1] (setting [5]), 48 nM in test [2], 103 nM in test [3] (L. donovani axenic amastigotes) and 152 nM in test [4].

As for `Cc1nc(C)c(C(=O)Nc2ccc(F)c(-c3cn4cc(C5=CCN(Cc6ccccc6)CC5)cnc4n3)c2)o1` [Compound 378], the EC50 in test [1] (setting [5]) is 38 nM; in test [2], 47 nM; in test [3] (L. donovani axenic amastigotes), 543 nM; in test [4], 134 nM.

`O=C(Nc1cnc2nc(-c3cc(NC(=O)N4CCCC4)ccc3F)cn2c1)c1ccc(F)cn1` [Compound 124]: the EC50 in test [1] (setting [6]) is 23 nM; in test [2] (inhibition of proliferation) it was 46 nM; in test [3] (setting [7]), 49 nM; in test [4] (inhibition of proliferation), 5640 nM.

As to `COc1cnc2nc(-c3cc(NC(=O)c4oc(C)nc4C)ccc3F)cn2c1` [Compound 607], the EC50 was 1040 nM in test [1] (setting [5]), 437 nM in test [2], 705 nM in test [3] (L. donovani axenic amastigotes) and 443 nM in test [4].

In the case of `CC(C)OC(=O)Nc1cnc2nc(-c3cc(NC(=O)N4CC[C@H](F)C4)ccc3Cl)cn2c1` [Compound 264], the EC50 in test [1] (setting [6]) was 4310 nM; in test [2] (inhibition of proliferation) it was 4720 nM; in test [3] (setting [7]) it was 4750 nM; in test [4] (inhibition of proliferation) it was greater than 14000 nM.

With `Cc1nc(C)c(C(=O)Nc2ccc(F)c(-c3cn4cc(-c5ccncc5F)cnc4n3)c2)o1` [Compound 444], the EC50 turned out to be 25 nM in test [1] (setting [5]), 50 nM in test [2], 86 nM in test [3] (L. donovani axenic amastigotes) and 183 nM in test [4].

As for `Cc1nc(C)c(C(=O)Nc2ccc(F)c(-c3cn4cc(NC(=O)[C@@H]5[C@H](N)[C@@H]6C=C[C@H]5C6)cnc4n3)c2)o1` [Compound 180], the EC50 in test [1] (setting [6]) is 4380 nM; in test [2] (inhibition of proliferation), greater than 20000 nM; in test [3] (setting [7]) it was greater than 25000 nM; in test [4] (inhibition of proliferation) it was greater than 50000 nM.

For the compound `O=C(Nc1ccc(F)c(-c2cn3cc(-c4ccccn4)cnc3n2)c1)N1CC(F)(F)C1` [Compound 296, 3,3-difluoro-N-(4-fluoro-3-(6-(pyridin-2-yl)imidazo[1,2-a]pyrimidin-2-yl)phenyl)azetidine-1-carboxamide], the EC50 in test [1] was 12 nM; in test [2] (inhibition of proliferation), 14 nM; in test [3] (setting [7]), 4 nM; in test [4] (inhibition of proliferation) it was 13 nM.

Take `Cc1nc(C)c(C(=O)Nc2ccc(Cl)c(-c3cn4cc(NC(=O)OC(C)C)cnc4n3)c2)o1` [Compound 45]: the EC50 in test [1] (setting [6]) was determined as 522 nM; in test [2] (inhibition of proliferation), 400 nM; in test [3] (setting [7]), 226 nM; in test [4] (inhibition of proliferation), 452 nM.

Consider `Cc1nnc(C(=O)Nc2ccc(Cl)c(-c3cn4cc(NC(=O)OC(C)C)cnc4n3)c2)o1` [Compound 527], for which the EC50 was greater than 50000 nM in test [1] (setting [5]), greater than 20000 nM in test [2], greater than 25000 nM in test [3] (L. donovani axenic amastigotes) and 5770 nM in test [4].

On to `C=Cc1cnc2nc(-c3cc(NC(=O)c4oc(C)nc4C)ccc3F)cn2c1` [Compound 581, N-(4-fluoro-3-(6-vinylimidazo[1,2-a]pyrimidin-2-yl)phenyl)-2,4-dimethyloxazole-5-carboxamide], for which the EC50 in test [1] (setting [5]) came to 101 nM; in test [2], 110 nM; in test [3] (L. donovani axenic amastigotes), 169 nM; in test [4] it was 249 nM.

As for `Cc1nc(C)c(C(=O)Nc2ccc(F)c(-c3cn4cc(-c5ccc(CN(C)C)cc5)cnc4n3)c2)o1` [Compound 360], the half-maximal effective concentration (EC50) in test [1] (setting [6]) stood at 116 nM; in test [2] (inhibition of proliferation) it was 252 nM; in test [3] (setting [7]), 3370 nM; in test [4] (inhibition of proliferation) it was 450 nM.

For the compound `Cc1ncoc1C(=O)Nc1ccc(Cl)c(-c2cn3cc(NC(=O)OC(C)C)cnc3n2)c1` [Compound 53], the EC50 in test [1] (setting [6]) is 386 nM; in test [2] (inhibition of proliferation), 572 nM; in test [3] (setting [7]) it was 448 nM; in test [4] (inhibition of proliferation) it was 6270 nM.

With `CCn1ccnc1C(=O)Nc1cnc2nc(-c3cc(NC(=O)N4CCCC4)ccc3F)cn2c1` [Compound 142], the EC50 in test [1] (setting [6]) was 121 nM; in test [2] (inhibition of proliferation), 179 nM; in test [3] (setting [7]) it was 63 nM; in test [4] (inhibition of proliferation), 506 nM.

As for `CC(C)OC(=O)Nc1cnc2nc(-c3cc(NC(=O)N4CC[C@@H](F)C4)ccc3Cl)cn2c1` [Compound 267], the EC50 was 116 nM in test [1] (setting [6]), 1920 nM in test [2] (inhibition of proliferation), 485 nM in test [3] (setting [7]) and 1800 nM in test [4] (inhibition of proliferation).

For the compound `Cc1nc(C)c(C(=O)Nc2ccc(F)c(-c3cn4cc(N5C[C@@H](C)O[C@@H](C)C5)cnc4n3)c2)o1` [Compound 491], the EC50 in test [1] (setting [5]) was found to be 140 nM; in test [2], 296 nM; in test [3] (L. donovani axenic amastigotes) it was 234 nM; in test [4] it was 743 nM.

Take `Cc1nc(C)c(C(=O)Nc2ccc(F)c(-c3cn4cc(NC(=O)C5COCCO5)cnc4n3)c2)o1` (stereo not shown) [Compound 113]: the EC50 in test [1] (setting [6]) turned out to be 452 nM; in test [2] (inhibition of proliferation), 2990 nM; in test [3] (setting [7]), 257 nM; in test [4] (inhibition of proliferation), 502 nM.

`Cc1nc(C)c(C(=O)Nc2ccc(F)c(-c3cn4cc(C(C)C)cnc4n3)c2)o1` [Compound 412]: the concentration giving a half-maximal response (EC50) in test [1] (setting [5]) is 40 nM; in test [2], 48 nM; in test [3] (L. donovani axenic amastigotes), 46 nM; in test [4] it was 134 nM.

As for `Cc1nc(C)c(C(=O)Nc2ccc(F)c(-c3cn4cc(NS(=O)(=O)C(C)C)cnc4n3)c2)o1` [Compound 315, N-(4-fluoro-3-(6-(1-methylethylsulfonamido)imidazo[1,2-a]pyrimidin-2-yl)phenyl)-2,4-dimethyloxazole-5-carboxamide], the EC50 in test [1] (setting [6]) was 4410 nM; in test [2] (inhibition of proliferation), greater than 19800 nM; in test [3] (setting [7]), 2520 nM; in test [4] (inhibition of proliferation) it was 19100 nM.

In the case of `Cc1nc(C)c(C(=O)Nc2ccc(F)c(-c3cn4cc(NC(=O)c5ccc(OCCN6CCN(C)CC6)cc5)cnc4n3)c2)o1` [Compound 175], the EC50 in test [1] (setting [6]) was 4480 nM; in test [2] (inhibition of proliferation) it was greater than 20000 nM; in test [3] (setting [7]), greater than 25000 nM; in test [4] (inhibition of proliferation), 12600 nM.

`Cc1nc(C)c(C(=O)Nc2ccc(F)c(-c3cn4cc(NC(=O)C5CN(C)CCO5)cnc4n3)c2)o1` (stereo not shown) [Compound 152]: the EC50 was found to be 425 nM in test [1] (setting [6]), 4670 nM in test [2] (inhibition of proliferation), 1730 nM in test [3] (setting [7]) and 2380 nM in test [4] (inhibition of proliferation).

Consider `Cc1nc(C)c(C(=O)Nc2ccc(F)c(-c3cn4cc(-c5cccnc5)cnc4n3)c2)o1` [Compound 395], for which the concentration for a half-maximal effect (EC50) in test [1] (setting [5]) worked out at 45 nM; in test [2], 153 nM; in test [3] (L. donovani axenic amastigotes), 109 nM; in test [4], 187 nM.

On to `Cc1nc(C)c(C(=O)Nc2ccc(F)c(-c3cn4cc(NCC(C)C)cnc4n3)c2)o1` [Compound 463], for which the EC50 in test [1] (setting [5]) was found to be 238 nM; in test [2], 163 nM; in test [3] (L. donovani axenic amastigotes), 571 nM; in test [4] it was 507 nM.

Take `Cc1nnc(C(=O)Nc2cccc(-c3cn4cc(NC(=O)OC(C)C)cnc4n3)c2)o1` [Compound 526, isopropyl (2-(3-(5-methyl-1,3,4-oxadiazole-2-carboxamido)phenyl)imidazo[1,2-a]pyrimidin-6-yl)carbamate]: the EC50 in test [1] (setting [5]) was greater than 50000 nM; in test [2], greater than 20000 nM; in test [3] (L. donovani axenic amastigotes) it was greater than 25000 nM; in test [4] it was greater than 50000 nM.

Take `CC(C)OC(=O)Nc1ccc(F)c(-c2cn3cc(C4=CCOCC4)cnc3n2)c1` [Compound 332]: the EC50 was 124 nM in test [1] (setting [6]), 134 nM in test [2] (inhibition of proliferation), 166 nM in test [3] (setting [7]) and 592 nM in test [4] (inhibition of proliferation).
